The assay concerns salicylate responsive promoter sequence of the PR1 (pathogenesis-related protein 1) gene (AT2G14610). Description: Induction of defense gene expression in Arabidopsis thaliana (PR1 promoter-GFP reporter plants). The note with it: 300 ppm, 3rd day after spraying; mock treated leaves set as 1.00. The assay is classed as in vivo. As for the experimental part: Arabidopsis thaliana reporter plants containing the coding sequence of a green fluorescent protein (GFP) linked to the salicylate responsive promoter sequence of the PR1 (pathogenesis-related protein 1) gene (AT2G14610) were grown for five days and then sprayed with compounds. On the 3rd day after spraying, plant fluorescence was assessed with a MacroFluo instrument from Leica Microsystems (Wetzlar, Germany). Fluorescences were quantified with the Meta-Morph Microscopy Automation & Image Analysis Software (Molecular Devices, Sunnyvale, Calif., United States). Background fluorescence in mock treated leaves was set as 1.00.

Experimental findings from patent publication US20230159486A1, “SUBSTITUTED THIOPHENECARBOXAMIDES AND ANALOGUES AS ANTIBACTERIALS AGENTS” (Bayer Aktiengesellschaft, priority 2018, published 2023) are described below.

On to `O=C(O)c1ccccc1O` [Salicylic acid], for which the relative fluorescence value was 2.70.
